In general, IC50 refers to the midpoint of a concentration-inhibition curve. Low readings indicate inhibition by little substance, high ones a need for much substance.

The text below walks through data of PMC8322070, “A novel orally active HDAC6 inhibitor T-518 shows a therapeutic potential for Alzheimer’s disease and tauopathy in mice” (Scientific Reports, 2021).

What all share (assay type): biochemical
Assay [1] concerns the target T1, human HDAC6 (Homo sapiens, UniProt Q9UBN7).
T1 construct: purchased SignalChem Pharmaceutical Inc
T1 sequence (Q9UBN7 1-1215): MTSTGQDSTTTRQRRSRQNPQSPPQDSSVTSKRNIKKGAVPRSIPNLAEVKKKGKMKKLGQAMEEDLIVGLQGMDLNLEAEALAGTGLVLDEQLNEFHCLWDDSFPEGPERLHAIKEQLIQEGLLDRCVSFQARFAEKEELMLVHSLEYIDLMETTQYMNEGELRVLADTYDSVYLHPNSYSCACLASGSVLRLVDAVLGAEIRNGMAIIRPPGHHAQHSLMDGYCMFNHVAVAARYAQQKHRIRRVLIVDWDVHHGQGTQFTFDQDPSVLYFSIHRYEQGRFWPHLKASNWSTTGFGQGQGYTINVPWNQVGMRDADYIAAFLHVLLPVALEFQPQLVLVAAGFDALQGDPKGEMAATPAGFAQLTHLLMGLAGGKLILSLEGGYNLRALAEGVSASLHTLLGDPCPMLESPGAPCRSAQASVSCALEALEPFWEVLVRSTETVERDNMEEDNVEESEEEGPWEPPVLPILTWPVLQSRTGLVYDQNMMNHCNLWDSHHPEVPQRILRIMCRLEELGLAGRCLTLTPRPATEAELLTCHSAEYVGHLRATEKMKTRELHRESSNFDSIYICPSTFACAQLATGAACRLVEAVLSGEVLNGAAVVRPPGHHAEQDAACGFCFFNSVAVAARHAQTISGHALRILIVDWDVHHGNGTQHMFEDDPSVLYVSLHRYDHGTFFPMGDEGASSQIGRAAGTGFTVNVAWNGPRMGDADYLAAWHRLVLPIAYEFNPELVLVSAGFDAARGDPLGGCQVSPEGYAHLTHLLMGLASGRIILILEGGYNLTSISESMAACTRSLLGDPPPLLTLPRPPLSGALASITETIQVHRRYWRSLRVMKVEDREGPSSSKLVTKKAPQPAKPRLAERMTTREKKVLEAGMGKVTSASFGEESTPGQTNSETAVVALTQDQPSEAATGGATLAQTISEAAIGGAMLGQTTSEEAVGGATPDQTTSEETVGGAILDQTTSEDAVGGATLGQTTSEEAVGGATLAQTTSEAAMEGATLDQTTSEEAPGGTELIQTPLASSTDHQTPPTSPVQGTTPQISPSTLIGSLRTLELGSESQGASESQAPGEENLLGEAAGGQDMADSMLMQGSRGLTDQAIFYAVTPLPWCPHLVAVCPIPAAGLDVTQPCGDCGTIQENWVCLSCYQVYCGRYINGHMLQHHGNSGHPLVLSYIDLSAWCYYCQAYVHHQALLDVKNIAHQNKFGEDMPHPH
Kind of assay: HDAC enzyme assay (HDAC-Glo I/II), HDAC6. Here is the method:
(§1) Recombinant HDAC6, HDAC7, HDAC1 were obtained from SignalChem Pharmaceutical Inc. (Richmond, BC, Canada), and recombinant human HDAC4 was prepared at Takeda pharmaceutical company. One μL of T-518 diluted with DMSO was added to 75 μL of assay buffer (24 mM Tris–HCl (pH 7.5), 135 mM NaCl, 0.35 mM KCl, 1 mM MgCl2, 0.01% Tween 20, 0.6 mM GSH) in 384 well plates. Two μL of diluted compounds were added to 384 well plates and 2 μL of recombinant HDAC enzymes was added and then centrifuged at 1000 rpm for 10 s. The final concentrations of each HDAC enzyme were as follows, human HDAC1, 170 pM; human HDAC6, […]; human HDAC4, 68 pM; human HDAC7, 13 pM. After incubation for 60 min at room temperature, 4 μL of HDAC-Glo reagent [HDAC-Glo I/II (Promega) for HDAC6 and HDAC1, HDAC-Glo class IIa (Promega) for HDAC4 and HDAC7] was added to start the reaction. After incubation for 20 min at room temperature, the luminescence was measured by Envision plate reader (PerkinElmer, Waltham, MA, USA). For experiments under the condition of 0 min preincubation, 4 μL of HDAC-Glo reagent was added at first to the 384 well plates including diluted compounds. […] After centrifugation at 1000 rpm for 10 s. and then incubation for 20 min at room temperature, the luminescence was measured by Envision. […] The inhibitory activity of T-518 was expressed as the value of IC50. […]

Assay [2] has as its target T2, human HDAC4 (Homo sapiens, UniProt P56524).
T2 construct: made in house
Kind of assay: HDAC enzyme assay (HDAC-Glo class IIa), HDAC4. Particulars: concentrations up to 10 μM. Here is the method:
as §1

Assay [3] has as its target T3, human HDAC7 (Homo sapiens, UniProt Q8WUI4).
T3 construct: purchased SignalChem Pharmaceutical Inc
T3 sequence (Q8WUI4 1-952): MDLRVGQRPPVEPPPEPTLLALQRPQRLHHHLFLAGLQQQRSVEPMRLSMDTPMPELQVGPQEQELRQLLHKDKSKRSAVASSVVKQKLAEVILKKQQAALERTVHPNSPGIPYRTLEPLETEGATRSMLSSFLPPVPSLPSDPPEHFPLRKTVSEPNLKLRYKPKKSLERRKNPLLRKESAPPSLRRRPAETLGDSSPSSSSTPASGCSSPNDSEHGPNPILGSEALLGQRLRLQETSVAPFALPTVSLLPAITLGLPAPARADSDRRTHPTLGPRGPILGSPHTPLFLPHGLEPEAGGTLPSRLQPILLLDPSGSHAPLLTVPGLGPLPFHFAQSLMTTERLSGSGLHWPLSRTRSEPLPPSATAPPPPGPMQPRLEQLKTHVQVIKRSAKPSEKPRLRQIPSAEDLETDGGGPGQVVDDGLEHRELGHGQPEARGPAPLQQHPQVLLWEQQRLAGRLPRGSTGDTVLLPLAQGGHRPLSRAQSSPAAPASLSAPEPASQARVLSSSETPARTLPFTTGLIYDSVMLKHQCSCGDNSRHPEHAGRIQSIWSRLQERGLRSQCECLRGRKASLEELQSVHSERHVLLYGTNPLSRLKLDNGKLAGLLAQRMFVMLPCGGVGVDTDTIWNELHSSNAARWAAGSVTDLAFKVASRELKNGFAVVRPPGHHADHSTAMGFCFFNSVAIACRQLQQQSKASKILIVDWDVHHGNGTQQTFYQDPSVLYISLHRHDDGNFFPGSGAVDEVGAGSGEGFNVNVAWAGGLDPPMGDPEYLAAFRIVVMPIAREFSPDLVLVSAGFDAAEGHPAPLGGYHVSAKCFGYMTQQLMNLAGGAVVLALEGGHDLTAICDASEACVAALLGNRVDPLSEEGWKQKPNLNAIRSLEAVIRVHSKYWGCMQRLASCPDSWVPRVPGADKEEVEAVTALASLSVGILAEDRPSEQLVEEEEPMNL
Nature of the assay: HDAC enzyme assay (HDAC-Glo class IIa), HDAC7. The note with it: concentrations up to 10 μM. The protocol: as §1

T2 sequence (P56524 whole entry): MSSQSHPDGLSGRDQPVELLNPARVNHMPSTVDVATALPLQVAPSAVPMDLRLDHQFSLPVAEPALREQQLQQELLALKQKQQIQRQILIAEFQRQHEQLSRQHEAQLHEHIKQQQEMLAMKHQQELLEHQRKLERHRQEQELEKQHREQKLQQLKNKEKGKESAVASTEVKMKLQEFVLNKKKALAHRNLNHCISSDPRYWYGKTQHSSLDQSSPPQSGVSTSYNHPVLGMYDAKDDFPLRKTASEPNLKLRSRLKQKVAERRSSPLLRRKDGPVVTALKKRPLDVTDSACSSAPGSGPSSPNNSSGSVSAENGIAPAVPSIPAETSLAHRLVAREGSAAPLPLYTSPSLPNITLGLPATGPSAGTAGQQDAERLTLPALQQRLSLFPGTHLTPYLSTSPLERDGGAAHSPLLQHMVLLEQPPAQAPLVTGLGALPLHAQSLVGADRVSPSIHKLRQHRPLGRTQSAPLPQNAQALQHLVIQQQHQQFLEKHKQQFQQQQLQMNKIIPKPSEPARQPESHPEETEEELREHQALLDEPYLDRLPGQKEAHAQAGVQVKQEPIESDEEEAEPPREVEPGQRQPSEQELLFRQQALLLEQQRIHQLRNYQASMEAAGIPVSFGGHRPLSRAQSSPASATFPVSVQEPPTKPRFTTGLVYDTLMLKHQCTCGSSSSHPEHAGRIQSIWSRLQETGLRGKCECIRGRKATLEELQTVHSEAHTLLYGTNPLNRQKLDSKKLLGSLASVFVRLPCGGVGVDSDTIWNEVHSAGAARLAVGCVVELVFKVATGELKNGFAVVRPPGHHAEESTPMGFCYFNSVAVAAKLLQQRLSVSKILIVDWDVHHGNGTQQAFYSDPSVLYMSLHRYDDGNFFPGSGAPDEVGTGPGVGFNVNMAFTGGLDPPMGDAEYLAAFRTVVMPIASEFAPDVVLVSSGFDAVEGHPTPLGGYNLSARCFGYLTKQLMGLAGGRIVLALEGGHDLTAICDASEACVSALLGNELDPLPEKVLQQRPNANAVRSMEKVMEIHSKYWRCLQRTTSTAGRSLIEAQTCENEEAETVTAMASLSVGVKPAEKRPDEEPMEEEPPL

As for `O=C1c2cc(-c3nnc(C(F)F)o3)cnc2CN1[C@@H]1CCCC[C@H]1NC(=O)C(F)(F)C(F)(F)F` [T-518, N-[(1R,2R)-2-{3-[5-(difluoromethyl)-1,3,4-oxadiazol-2-yl]-5-oxo-5H,6H,7H-pyrrolo[3,4-b]pyridin-6-yl}cyclohexyl]-2,2,3,3,3-pentafluoropropanamide], the IC50 came to 4.6 nM in assay [1] (after 60 min of pre-incubation) and 36 nM in assay [1] (without pre-incubation). Besides, in assay [2], the “inhibition of human HDAC4 enzyme activity” value is listed as “did not obviously inhibit”. Further, in assay [3], the “inhibition of human HDAC7 enzyme activity” value is listed as “did not obviously inhibit”.
